Test results: paper PMC11124822, “Discovery and Anticancer Screening of Novel Oxindole-Based Derivative Bearing Pyridyl Group as Potent and Selective Dual FLT3/CDK2 Kinase Inhibitor” (Pharmaceuticals, 2024)

How the values were obtained:
Assay in all cases: NCI-60 antiproliferative screen (SRB)
MALME-3M = type: cell-based, human; conditions: Homo sapiens; 10 µM single dose, 48 h; MALME-3M (Melanoma); read-out: Growth inhibition (%)
UACC-62 = type: cell-based, human; conditions: Homo sapiens; 10 µM single dose, 48 h; UACC-62 (Melanoma); read-out: Growth inhibition (%)
EKVX = type: cell-based, human; conditions: Homo sapiens; 10 µM single dose, 48 h; EKVX (NSCLC); read-out: Growth inhibition (%)
HCT-116 = type: cell-based, human; conditions: Homo sapiens; 10 µM single dose, 48 h; HCT-116 (Colon); read-out: Growth inhibition (%)
MDA-MB-435 = type: cell-based, human; conditions: Homo sapiens; 10 µM single dose, 48 h; MDA-MB-435 (Melanoma); read-out: Growth inhibition (%)
HL-60(TB) = type: cell-based, human; conditions: Homo sapiens; 10 µM single dose, 48 h; HL-60(TB) (Leukemia); read-out: Growth inhibition (%)
OVCAR-4 = conditions: Homo sapiens, OVCAR-4, 48 h, read-out: Growth inhibition (%)
Procedure: (§1) Anticancer activity was tested against 60 cancer cell lines (NCI-60) after 48h treatments with a single dosage of 10 μM of compounds by using sulforhodamine B assay [39] on the traditional 96-well platform. […] The human cancer cell lines of the NCI-60 panel are grown in RPMI 1640 medium supplemented with 5% FBS (fetal bovine serum) and 2 mM L-glutamine. […] For further analysis of promising compounds, five dose screens were performed against the NCI-60 panel. Drug treatments are performed in 5 doses using 10-fold or ½ log dose dilutions.

HS 578T = type: cell-based, human; conditions: Homo sapiens; 10 µM single dose, 48 h; HS 578T (Breast); read-out: Growth inhibition (%)
IGROV1 = type: cell-based, human; conditions: Homo sapiens, IGROV-1; 10 µM single dose, 48 h; IGROV1 (Ovarian); read-out: Growth inhibition (%)
LOX IMVI = type: cell-based, human; conditions: Homo sapiens; 10 µM single dose, 48 h; LOX IMVI (Melanoma); read-out: Growth inhibition (%)
UACC-257 = type: cell-based, human; conditions: Homo sapiens; 10 µM single dose, 48 h; UACC-257 (Melanoma); read-out: Growth inhibition (%)
SNB-19 = type: cell-based, human; conditions: Homo sapiens; 10 µM single dose, 48 h; SNB-19 (CNS); read-out: Growth inhibition (%)
K-562 = type: cell-based, human; conditions: Homo sapiens, K562; 10 µM single dose, 48 h; K-562 (Leukemia); read-out: Growth inhibition (%)
NCI-H522 = type: cell-based, human; conditions: Homo sapiens; 10 µM single dose, 48 h; NCI-H522 (NSCLC); read-out: Growth inhibition (%)
SF-295 = type: cell-based, human; conditions: Homo sapiens; 10 µM single dose, 48 h; SF-295 (CNS); read-out: Growth inhibition (%)
U251 = type: cell-based, human; conditions: Homo sapiens, U-251; 10 µM single dose, 48 h; U251 (CNS); read-out: Growth inhibition (%)
MDA-MB-468 = type: cell-based, human; conditions: Homo sapiens; 10 µM single dose, 48 h; MDA-MB-468 (Breast); read-out: Growth inhibition (%)
RXF 393 = type: cell-based, human; conditions: Homo sapiens; 10 µM single dose, 48 h; RXF 393 (Renal); read-out: Growth inhibition (%)
UO-31 = type: cell-based, human; conditions: Homo sapiens; 10 µM single dose, 48 h; UO-31 (Renal); read-out: Growth inhibition (%)
NCI-H322M = type: cell-based, human; conditions: Homo sapiens; 10 µM single dose, 48 h; NCI-H322M (NSCLC); read-out: Growth inhibition (%)
BT-549 = type: cell-based, human; conditions: Homo sapiens; 10 µM single dose, 48 h; BT-549 (Breast); read-out: Growth inhibition (%)
M14 = type: cell-based, human; conditions: Homo sapiens; 10 µM single dose, 48 h; M14 (Melanoma); read-out: Growth inhibition (%)
OVCAR-3 = type: cell-based, human; conditions: Homo sapiens; 10 µM single dose, 48 h; OVCAR-3 (Ovarian); read-out: Growth inhibition (%)
NCI/ADR-RES = type: cell-based, human; conditions: Homo sapiens; 10 µM single dose, 48 h; NCI/ADR-RES (Ovarian); read-out: Growth inhibition (%)
786-0 = type: cell-based, human; conditions: Homo sapiens; 10 µM single dose, 48 h; 786-0 (Renal); read-out: Growth inhibition (%)
HT29 = type: cell-based, human; conditions: Homo sapiens, HT-29; 10 µM single dose, 48 h; HT29 (Colon); read-out: Growth inhibition (%)
DU-145 = type: cell-based, human; conditions: Homo sapiens; 10 µM single dose, 48 h; DU-145 (Prostate); read-out: Growth inhibition (%)
NCI-H460 = type: cell-based, human; conditions: Homo sapiens; 10 µM single dose, 48 h; NCI-H460 (NSCLC); read-out: Growth inhibition (%)
PC-3 = type: cell-based, human; conditions: Homo sapiens; 10 µM single dose, 48 h; PC-3 (Prostate); read-out: Growth inhibition (%)
SR = conditions: Homo sapiens, 48 h, read-out: Growth inhibition (%)
Procedure: as §1

SMILES | inhibition at 10 µM (UACC-62) | inhibition at 10 µM (EKVX) | inhibition at 10 µM (HCT-116) | inhibition at 10 µM (MDA-MB-435) | inhibition at 10 µM (HL-60(TB)) | inhibition at 10 µM (OVCAR-4) | inhibition at 10 µM (HS 578T) | inhibition at 10 µM (LOX IMVI) | inhibition at 10 µM (UACC-257) | inhibition at 10 µM (SNB-19) | inhibition at 10 µM (K-562) | inhibition at 10 µM (NCI-H522) | inhibition at 10 µM (SF-295) | inhibition at 10 µM (U251) | inhibition at 10 µM (MDA-MB-468) | inhibition at 10 µM (RXF 393) | inhibition at 10 µM (M14) | inhibition at 10 µM (OVCAR-3) | inhibition at 10 µM (NCI/ADR-RES) | inhibition at 10 µM (786-0) | other results
O=C1Nc2ccc(F)cc2C1=Cc1ccc(OCc2ccccn2)cc1 (mixture of isomers) [Compound 5f, (E/Z)-5-fluoro-3-[4-(pyridin-2-ylmethoxy)benzylidene]indolin-2-one] | 9.94% | 15.8% | 57.8% | -2.77% | 13.9% | 5.38% | 21.9% | 12.6% | -4.06% | 12.9% | 14.6% | 68.1% | 1.98% | 41.8% | 28.2% | 24.2% | -5.09% | 8.17% | 21.7% | 16.6% | inhibition at 10 µM (MALME-3M): 7.24%; inhibition at 10 µM (IGROV1): 6.35%; inhibition at 10 µM (UO-31): 26.5%; inhibition at 10 µM (NCI-H322M): 3.29%; inhibition at 10 µM (BT-549): 13.2%; inhibition at 10 µM (HT29): -0.51%; inhibition at 10 µM (DU-145): 7.73%; inhibition at 10 µM (NCI-H460): 11.6%; inhibition at 10 µM (PC-3): 8.7%
O=C1Nc2ccccc2C1=Cc1ccc(OCc2cccnc2)cc1 (mixture of isomers) [Compound 5i, (E/Z)-3-[4-(Pyridin-3-ylmethoxy)benzylidene]indolin-2-one] | 43.5% | 31.7% | 56.5% | 60.9% | 49.9% | 37.8% | 17.6% | 55% | 30.5% | 37.1% | 75.9% | 49.9% | 31.2% | 53.2% | 51.2% | 24.9% | 37.6% | -9.24% | 55% | 17.2% | inhibition at 10 µM (SR): 72%; inhibition at 10 µM (BT-549): 53.2%; inhibition at 10 µM (HT29): 32.7%; inhibition at 10 µM (DU-145): 39.8%; inhibition at 10 µM (NCI-H460): 21.7%; inhibition at 10 µM (PC-3): 29.8%
O=C1Nc2ccc(F)cc2C1=Cc1ccc(OCc2cccnc2)cc1 (mixture of isomers) [Compound 5j, (E/Z)-5-Fluoro-3-[4-(pyridin-3-ylmethoxy)benzylidene]indolin-2-one] | 57.8% | 41% | 84.7% | 98.3% | 81.7% | 47.2% | 37.4% | 76.9% | 39.8% | 62.1% | 86.1% | 89.5% | 54.8% | 83.7% | 58.5% | 37.3% | 67.1% | 9.05% | 85.6% | 24.2% | inhibition at 10 µM (SR): 73%; inhibition at 10 µM (BT-549): 65.7%; inhibition at 10 µM (HT29): 84.1%; inhibition at 10 µM (DU-145): 46.1%; inhibition at 10 µM (NCI-H460): 53.9%; inhibition at 10 µM (PC-3): 43.6%
O=C1Nc2ccc(Cl)cc2C1=Cc1ccc(OCc2cccnc2)cc1 (mixture of isomers) [Compound 5k, (E/Z)-5-Chloro-3-[4-(pyridin-3-ylmethoxy)benzylidene] indolin-2-one] | 23.3% | 16.1% | 34.6% | 29.3% | 14.8% | 21.2% | 3.67% | 10.1% | 2.42% | 22.9% | 38.8% | 19.8% | 4.51% | 27.3% | 12.5% | 6.84% | 12.2% | -10.9% | 26% | 1.47% | inhibition at 10 µM (SR): 66.1%; inhibition at 10 µM (BT-549): 14.5%; inhibition at 10 µM (HT29): 18.1%; inhibition at 10 µM (DU-145): 0.75%; inhibition at 10 µM (NCI-H460): 14.3%; inhibition at 10 µM (PC-3): 24.3%
O=C1Nc2ccccc2C1=Cc1ccc(OCc2ccncc2)cc1 (mixture of isomers) [Compound 5m, (E/Z)-3-[4-(Pyridin-4-ylmethoxy)benzylidene] indolin-2-one] | 31.1% | 63.5% | 40.5% | 49.6% | 55.3% | 42.7% | 17.9% | 41.4% | 35.8% | 43.1% | 62.7% | 32.7% | 58.3% | 38.9% | 91.1% | 43.9% | 23.7% | 21.5% | 61.8% | 14.6% | inhibition at 10 µM (MALME-3M): 17.4%; inhibition at 10 µM (SR): 73.3%; inhibition at 10 µM (IGROV1): 25.4%; inhibition at 10 µM (UO-31): 44.7%; inhibition at 10 µM (NCI-H322M): 20.9%; inhibition at 10 µM (HT29): 11.2%; inhibition at 10 µM (DU-145): 33.7%; inhibition at 10 µM (NCI-H460): 40.5%; inhibition at 10 µM (PC-3): 46%
